Key:
[1] = tested on: GFP-labeled human myeloma MM1.S cells; test: GFP-labeled MM1.S myeloma cell growth with/without stromal cells, fluorescence microscopy; assay type: cell-based; conditions: 10 μM, 72 hours
Method: FIG. 3 is a graph depicting MM cell growth inhibition. Data is shown as the mean±SD (n=5). *: P<0.01 compared to no-inhibitor cultures without stromal cells. **: P<0.01 compared to no-treatment co-cultured with stromal cells.
(§1) Compound 3 was tested for its capacity to block MM-stimulated signaling in marrow stromal cells, thereby resulting in less bone destruction and MM growth. The effects of the compound 3 on GFP-labeled MM1.S myeloma cell growth with/without stromal cells, IL-6 and VCAM-1 expression on stromal cells induced by TNF-α and OCL formation, and TNF-α induced PKCζ phosphorylation, the specific kinase enzyme activated p62-ZZ, were examined. GFP-labeled MM1.S myeloma cells or normal human CFU-GM, a source of OCL precursors, were then co-cultured with human stromal cells with the p62-ZZ inhibitor. The 10 μM of inhibitor compound 3 blocked MM cell growth by 90% compared to vehicle (0.1% DMSO). […] VCAM-1 expression and IL-6 production induced by TNF-α on stromal cells was blocked by 30% and 90% respectively compared to vehicle levels. Furthermore, TNF-α induced PKC, phosphorylation blocked was in stromal cells and MM1.S when pre-treated with this p62-ZZ inhibitory compound for 3 hours.
Primary human bone marrow stromal cells were maintained in 10% FCS-IMDM. Stromal cells (1.5×10^3 cells/well) were cultured one day prior to the start of co-culture. Green fluorescent protein (GFP)-labeled human myeloma MM1.S cells (7.5×10^3 cells/well) were then cultured with/without stromal cells in the presence or absence of the p62-ZZ inhibitors (#1-6) for 72 hours. MM cell growth was determined by fluorescence microscopy.

[2] = tested on: CD138(+) primary myeloma cells; test: CD138(+) primary myeloma cell proliferation, MTT assay; assay type: cell-based, human; conditions: 48 h, FIG. 4B
Method: FIG. 4A-C: 4A. Effect of p62-ZZ inhibitor #3 on myeloma cell growth. MM cell growth was assayed by MTT assay. Data are shown as mean±SD (n=5). FIG. 4B. MTT assay of CD138(+) primary myeloma cells. Data are shown as mean±SD (n=5). FIG. 4C. Effects of p62-ZZ inhibitors on human stromal cell growth. Primary human stromal cells (5×10^3/well) were cultured with 10 μM of p62-ZZ inhibitor (#1-6) containing 10% FCS in IMDM for 48 hours. Stromal cells growth was assayed by MTT assay. Data are shown as the mean±SD (n=5). *P<0.01 compared to vehicle treated culture. MM1.S (3×10^5 cells/well) or CD138 (+) (1×10^5 cells/well) primary myeloma cells were incubated in 96-well plates in the presence of RPMI-1640-10% FCS and various concentrations of p62-ZZ inhibitor #3 at 37° C. 5% CO2 for 48 h to determine the IC50 for inhibiting myeloma cell proliferation.

IL-6 production = test: TNF-α induced IL-6 production by marrow stromal cells, ELISA; assay type: cell-based, human
Method: FIG. 5A-B: 5A. VCAM-1 expression using Western blot analysis. Normal human stromal cells were cultured with/without TNF and p62-ZZ inhibitors (#1-6) for 48 hours. The cell lysates were collected and VCAM-1 expression was measured using an anti-VCAM-1 antibody (Santa Cruz). FIG. 5B. IL-6 production by human and mouse marrow stromal cells by ELISA. Normal human and mouse marrow stromal cells were cultured with/without TNFα and p62-ZZ inhibitors (#1-6) for 48 hours. The cell culture media were collected and IL-6 production measured using an IL-6 ELISA kit (R &D). Data are shown as the means (n=2).
Normal human or mouse marrow stromal cells were maintained in 10% FBS-IMDM and treated with p62-ZZ inhibitors (#1-6) for 3 hours. Then TNFα or vehicle was added for 48 hours. Cell lysates were collected and VCAM-1 expression measured by Western blot using an anti-VCAM-1 antibody (Santa Cruz). The culture media were collected and IL-6 production was measured using an IL-6 ELISA kit (R&D Company).

phospho-PKCζ = test: TNF-α induced PKCζ phosphorylation in MM1.S cells; assay type: cell-based, human; conditions: pre-treated 3 hours
Method: as §1, with “inhibitor.” for “inhibitor. The 10 μM of inhibitor compound 3 blocked MM cell growth by 90% compared to vehicle (0.1% DMSO).”

[3] = tested on: p62 knockout OCL precursors; test: OCL formation by p62-/- mouse osteoclast precursors, TRACP stain; assay type: cell-based; conditions: 7 days, 50 ng/ml TNFα
Method: FIG. 7A-C: 7A. CFU-Blast colony formation. Human CD34(+) cells were cultured with p62-ZZ inhibitor #3 and 1 ng/ml of rhIL-3 IL-6 and SCF for 7 days. Data are shown as the mean±SD (n=5). FIG. 7B. Human OCL formation. Non-adherent mononuclear cells (2.5×10^7 cells/10-cm dish) derived from human bone marrow samples were cultured in α-MEM containing 10% FCS, 100 pg/ml recombinant human GM-CSF(R & D) for 7 days. Then the cells were collected and plated (cell density is 1.0×10^6 cells/nil) in α-MEM containing 20% horse serum with 1 ng/ml TNFα. Half-media changes were performed twice a week containing various concentrations of the p62-ZZ inhibitor #3. The cultures were incubated for a total of 2 weeks at 37° C. with 5% CO2 and 95% humidity. The osteoclasts were stained with the 23C6 antibody which recognizes CD51/61. Data are shown as the mean±SD (n=5). *P<0.01 compared to vehicle treated cultures. 7C. OCL formation by wild type and p62−/− mouse osteoclast precursors. Data is shown as the mean±SD (n=4). *: P<0.01 compared to no-inhibitor cultures. The effects of p62-ZZ inhibitor #3 on osteoclast formation by p62^−/− OCL precursors were examined to determine the specificity of the effects of the p62-ZZ inhibitor #3 on osteoclast precursors. CDIIb(+) mononuclear cells from wild type and p62″/_mice were used. […] OCLs were scored as TRAP positive cells containing 3 or more nuclei. […]

OCCNCc1ccc(OCc2ccccc2)c(OCc2ccccc2)c1 [Compound 3, 2-[[3,4-bis(phenylmethoxy)phenyl]methylamino]ethanol]
MM cell growth (result in words) ([1]; FIG. 3): directly blocked MM cell growth | MM cell growth blocked compared to vehicle ([1]; vs vehicle (0.1% DMSO)): 90% | growth of CD138(+) primary myeloma cells (result in words) [2]: directly inhibited | IL-6 production induced by TNF-α blocked compared to vehicle (IL-6 production; marrow stromal cells, 3 h pre-treatment, TNFα 48 hours): 90% | IL-6 production by TNF-α stimulated normal human stromal cells (result in words) (IL-6 production; normal human stromal cells, FIG. 5B): blocked IL-6 production | TNF-α induced PKCζ phosphorylation in MM1.S (phospho-PKCζ): blocked | OCL formation by p62 knockout OCL precursors [3]: did not block

— patent US11739053B2, “P62-ZZ chemical inhibitor” (ID4PHARMA, LLC, priority 2011, dated 2023)
